Experiment: compacted bulk volume (tapped density, Ph. Eur. 4 / Carr packed bulk density)
Type: physicochemical
Method: The compacted bulk volume is determined by the test method of the European Pharmacopoeia 4 (2002): “apparent density after settling”/“density of settled product”, identical to the “tapped density”, measured in grams per millilitre) or as the “Carr packed bulk density” according to the ASTM standard (D6393-99, Standard Test Method for Bulk Solids Characterization by Carr Indices), measured in grams per cm^3. The compacted bulk volume is a measurement of the volume which is taken up by solid, comminuted materials after they have been compacted under defined conditions.

compacted bulk volume (crystalline salmeterol xinafoate as obtained from ethanol/tert.butylmethylether, before micronisation): 0.27 g/mL | compacted bulk volume (micronised salmeterol xinafoate (air jet mill, grinding pressure 7.5 bar, feed pressure 8.0 bar)): 0.19 g/mL
SMILES: OCc1cc(C(O)CNCCCCCCOCCCCc2ccccc2)ccc1O (centres unmarked) [salmeterol xinafoate]

Source: US20070031347A1, “Powdered Medicaments Containing A Tiotropium Salt and Salmeterol Xinafoate” (Boehringer Ingelheim Pharma GmbH & Co. KG, priority 2002, published 2007)
